Experimental data published in PMC11589582, “Structural mechanisms of human sodium-coupled high-affinity choline transporter CHT1” (Cell Discovery, 2024).

Molecular target: T1, sodium-coupled high-affinity choline transporter CHT1 (Homo sapiens, UniProt Q9GZV3)
T1 construct: gene SLC5A7; Full-length human CHT1 (NP_068587.1) with a C-terminal Strep-tag
T1 sequence (Q9GZV3 1-580): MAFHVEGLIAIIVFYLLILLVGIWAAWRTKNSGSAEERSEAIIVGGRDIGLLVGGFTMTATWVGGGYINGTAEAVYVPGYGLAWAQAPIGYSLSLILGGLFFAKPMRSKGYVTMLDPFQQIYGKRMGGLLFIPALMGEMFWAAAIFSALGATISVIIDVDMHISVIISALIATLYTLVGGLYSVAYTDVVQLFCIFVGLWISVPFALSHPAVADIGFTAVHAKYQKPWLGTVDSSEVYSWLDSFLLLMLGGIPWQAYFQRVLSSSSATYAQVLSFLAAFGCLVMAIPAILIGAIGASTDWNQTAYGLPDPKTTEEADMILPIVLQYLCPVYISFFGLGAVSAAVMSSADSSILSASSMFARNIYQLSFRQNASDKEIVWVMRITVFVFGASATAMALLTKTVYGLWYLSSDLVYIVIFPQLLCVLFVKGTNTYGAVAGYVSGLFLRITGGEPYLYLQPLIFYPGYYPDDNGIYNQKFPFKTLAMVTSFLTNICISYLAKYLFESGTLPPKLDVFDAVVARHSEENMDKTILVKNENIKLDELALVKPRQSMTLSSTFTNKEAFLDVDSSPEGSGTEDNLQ
Assay: cryo-EM structure at […] Å; [3H]-choline uptake inhibition in CHT1-expressing HEK293 cells
Assay type: cell-based

For `C[N+]1(C)CCOC(O)(c2ccc(-c3ccc(C4(O)C[N+](C)(C)CCO4)cc3)cc2)C1` (stereo not shown) [HC3, hemicholinium-3], the IC50 was 4.98 ± 1.04 nM.
